IC50 data for 22 compounds are collected here from patent publication US8288379B2, “Thia-triaza-cyclopentazulenes” (Boehringer Ingelheim International GmbH, priority 2009, dated 2012).

Molecules are shown by their SMILES.

One may read the IC50 as the concentration needed to halve the response being measured. A lower IC50 goes with greater potency in that assay.

The target of the experiment is T1, FRAP1 (mTOR) kinase (Homo sapiens, UniProt P42345).
T1 construct: purchased Invitrogen PV4753
T1 sequence (P42345 1360-2549 limits assumed): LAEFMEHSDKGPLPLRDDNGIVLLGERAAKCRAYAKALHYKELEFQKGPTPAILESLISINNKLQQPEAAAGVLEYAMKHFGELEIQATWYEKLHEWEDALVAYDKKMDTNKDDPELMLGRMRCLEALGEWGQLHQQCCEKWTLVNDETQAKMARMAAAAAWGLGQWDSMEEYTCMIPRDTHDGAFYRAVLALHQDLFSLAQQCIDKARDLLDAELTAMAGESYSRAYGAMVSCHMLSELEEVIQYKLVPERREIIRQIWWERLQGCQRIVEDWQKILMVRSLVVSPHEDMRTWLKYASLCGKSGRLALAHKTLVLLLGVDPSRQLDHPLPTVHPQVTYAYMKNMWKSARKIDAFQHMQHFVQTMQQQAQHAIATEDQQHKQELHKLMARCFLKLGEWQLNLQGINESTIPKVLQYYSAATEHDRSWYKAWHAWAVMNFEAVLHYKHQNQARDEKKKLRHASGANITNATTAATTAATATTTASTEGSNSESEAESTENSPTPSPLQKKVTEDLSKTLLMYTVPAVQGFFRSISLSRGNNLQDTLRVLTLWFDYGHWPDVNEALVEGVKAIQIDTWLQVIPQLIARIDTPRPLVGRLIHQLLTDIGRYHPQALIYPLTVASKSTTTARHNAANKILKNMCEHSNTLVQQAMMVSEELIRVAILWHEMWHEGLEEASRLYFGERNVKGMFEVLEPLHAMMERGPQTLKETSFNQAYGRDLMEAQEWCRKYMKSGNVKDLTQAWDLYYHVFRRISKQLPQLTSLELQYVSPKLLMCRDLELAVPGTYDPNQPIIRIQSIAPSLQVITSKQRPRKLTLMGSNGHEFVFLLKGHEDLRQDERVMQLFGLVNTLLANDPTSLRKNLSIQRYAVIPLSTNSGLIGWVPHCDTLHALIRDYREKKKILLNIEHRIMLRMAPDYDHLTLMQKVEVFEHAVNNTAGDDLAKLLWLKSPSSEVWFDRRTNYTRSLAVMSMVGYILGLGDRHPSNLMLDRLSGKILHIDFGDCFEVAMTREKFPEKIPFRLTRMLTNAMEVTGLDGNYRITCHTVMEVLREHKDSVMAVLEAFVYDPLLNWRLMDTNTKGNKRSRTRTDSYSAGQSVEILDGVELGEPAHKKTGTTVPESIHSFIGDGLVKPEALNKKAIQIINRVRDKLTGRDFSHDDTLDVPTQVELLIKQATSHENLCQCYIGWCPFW
Nature of the experiment: Inhibition of mTOR-induced p-4E-BP1 phosphorylation (TR-FRET mTOR Activity Kit; Invitrogen). As to conditions: 400 nM GFP-4E-BP1 substrate, ~150 ng/mL mTOR, one hour at room temperature. The class given is biochemical. An excerpt:
Inhibition of mTOR-Induced p-4E-BP1 Phosphorylation (TR-FRET mTOR Activity Kit; Invitrogen)
• GFP-4E-BP1 substrate; Invitrogen order no. PV4759 • Lanthascreen Tb-anti-p4E-BP1 (pThr46) Antibody Kit; Invitrogen order no. PV4758 • FRAP1 (mTOR) kinase; Invitrogen order no. […] Preparation of Reagents: Note: Thaw and keep mTOR, the substrate, ATP, and the antibody on ice prior to making working dilutions. Working dilutions of these components can be kept at room temperature for short periods of time the day of use. 1. Add 2 ml of 5× Assay Buffer to 8 ml water to prepare 10 ml of 1× Assay Buffer. Note: The concentration of 1× Assay Buffer is 50 mM HEPES pH 7.5, 0.01% Polysorbate 20, 1 mM EGTA, and 10 mM MnCl2. 2. Prepare Antibody/EDTA Solution by first adding 2.75 n1 of Tb-anti p4E-BP1 Antibody to 2397 n1 of LanthaScreen™ TR-FRET Dilution Buffer. Then, add 100 n1 of 0.5 M EDTA. 3. Prepare 4× Substrate/Enzyme Solution by first adding 72 n1 of GFP-4E-BP1 (22 nM) to 926 n1 of 1× Assay Buffer. Then, add 1.6 n1 of mTOR (0.45 mg/mL). 4. Prepare ATP Solution by adding 3.2 n1 of 10 mM ATP to 1997 n1 of 1× Assay Buffer. Serial Dilution of Inhibitors (16 Point Curve): Note: It is recommended that inhibitors be serially diluted in DMSO, then diluted to a 4× working concentration with 1× Assay Buffer. The below procedure describes dilution of compounds in a 96-well format prior to transfer to a 384-well format for kinase assays. This procedure calls for dilution of the compounds in 2 adjacent columns of a 96-well plate, which upon transfer to a single column of a 384-well plate with an 8-channel pipette will align the samples in order of concentration. 1. Dispense 40 n1 of DMSO to two adjacent columns of a 96 well plate per compound (e.g. columns 1 and 2). 2. Add 10 n1 of inhibitor stock (10 mM) to the first well of the first column (A1) and mix. 3. Remove 10 n1 from A1 and transfer to the adjacent well in the next column (B1) and mix. 4. Remove 10 n1 from B1 and transfer to the next well in the first column (B2) and mix. 5. Repeat this dilution pattern through well H1 and leave the last well (H2) as DMSO only. 6. Remove 4 n1 of diluted compounds and add to 96 n1 of 1× Assay Buffer in a 96-well plate making 4× compound dilutions. Kinase Reaction: 1. Add 2.5 μl of 4× compound dilutions from the first column of the 96-well plate to every other well of column 1 of a 384-well plate with an 8-channel pipette. Repeat for columns 2 and 3. 2. Add 2.5 n1 of 4× compound dilutions from the second column of the 96-well plate to the empty wells of column 1 of the 384-well plate with an 8-channel pipette. Repeat for columns 2 and 3. Note: This procedure aligns the compound dilutions in order of concentration. 3. Add 2.5 n1 of 4× Enzyme/Substrate Solution to all columns 1-6. 4. Preincubate for 30 min. at RT (shaker). 5. Add 5 n1 of ATP Solution to all wells to start reactions. 6. Shake the assay plate on a plate shaker for 30 seconds. 7. Incubate the assay plate for one hour at room temperature (20-25° C.). Stop Step and Fluorescence Detection: 1. Add 10 n1 of Antibody/EDTA Solution to each well in columns 1-9. 2. Shake the assay plate on a plate shaker for 30 seconds. 3. Incubate the assay plate for one hour at room temperature (20-25° C.). 4. Measure the GFP (FRET) and terbium (reference) emission signals on a fluorescence plate reader (e.g. Perkin Elmer Envision). Data Analysis: 1. Calculate the emission ratio for each sample by dividing the GFP (FRET) signal by the terbium (reference) signal. 2. Plot the concentration of each compound versus the emission ratio. Determine the concentration of compound required to reach 50% of the maximum signal (IC50). Determination of IC50 values can be obtained by curve fitting (sigmoidal dose response, variable slope) using Prism software from GraphPad). Inhibition of Proliferation: CyQuant PC-3 Description: […]
For orientation: Time-resolved FRET reads energy transfer from a long-lived donor to a nearby acceptor.
`CCNc1ccc(-c2nn(-c3ccccc3C)c3c2CCCc2nc(NC(=O)COC)sc2-3)cn1` [Example B-100, N-[3-(6-Ethylamino-pyridin-3-yl)-1-o-tolyl-1,4,5,6-tetrahydro-9-thia-1,2,7-triaza-cyclopenta[e]azulen-8-yl]-2-methoxy-acetamide] showed a 50% inhibitory concentration (IC50) of 286 nM.

As to `CCNc1ccc(-c2nn(-c3cccnc3C)c3c2CCCc2nc(NC(=O)N(C)C)sc2-3)cn1` [Example B-141], the IC50 turned out to be 512 nM.

Compound `COCCC(=O)Nc1nc2c(s1)-c1c(c(-c3ccc(C)nc3)nn1-c1ccccc1C)CCC2` [Example E-14] returned a 50% inhibitory concentration (IC50) of 698 nM.

In the case of `CC(=O)Nc1nc2c(s1)-c1c(c(-c3cncn3C)nn1-c1ccccc1)CCC2` [Example B-94], the half-maximal inhibitory concentration (IC50) came out at 8360 nM.

The compound `CCNc1ccc(-c2nn(C(C)C)c3c2CCCc2nc(NC(=O)NC)sc2-3)cn1` [Example B-140] showed an IC50 of 182 nM.

Compound `CC(=O)Nc1nc2c(s1)-c1c(c(C(=O)NCCCO)nn1C(C)C)CCC2` [Example E-06] registered an IC50 of 18000 nM.

`CC(=O)Nc1nc2c(s1)-c1c(c(-c3cncn3C)nn1-c1ccccc1C)CCC2` [Example B-93] came in with an IC50 of 1110 nM.

In turn, `CC(=O)Nc1nc2c(s1)-c1c(c(C(=O)N(C)CCN(C)C)nn1C(C)C)CCC2` [Example E-03] gave an IC50 of 4850 nM.

In turn, `CN(C)C(=O)Nc1nc2c(s1)-c1c(c(-c3ccc(N)nc3)nn1-c1ccccc1F)CCC2` [Example B-97] came in with an IC50 of 175 nM.

Compound `CC(=O)Nc1nc2c(s1)-c1c(c(C(=O)Nc3ccccc3)nn1C(C)C)CCC2` [Example E-09] registered a half-maximal inhibitory concentration (IC50) of 8450 nM. Against the preceding compound, the IC50 is about 48-fold higher.

For the compound `CNC(=O)Nc1nc2c(s1)-c1c(c(-c3ccc(NC)nc3)nn1-c1ccccc1C)CCC2` [Example B-142, 1-Methyl-3-[3-(6-methylamino-pyridin-3-yl)-1-o-tolyl-1,4,5,6-tetrahydro-9-thia-1,2,7-triaza-cyclopent[e]azulen-8-yl]-urea], the half-inhibitory concentration (IC50) is 92 nM. Against the preceding compound, the IC50 is about 92-fold lower.

Regarding `Cc1ccccc1-n1nc(-c2ccc(N)nc2)c2c1-c1sc(NC(=O)CN)nc1CCC2` [Example B-102], the IC50 is 32 nM. Against the preceding compound, the IC50 is about 2.9-fold lower.

`CNc1ccc(-c2nn(-c3ccccc3C)c3c2CCCc2nc(NC(=O)COC)sc2-3)cn1` [Example B-107, 2-Methoxy-N-[3-(6-methylamino-pyridin-3-yl)-1-o-tolyl-1,4,5,6-tetrahydro-9-thia-1,2,7-triaza-cyclopenta[e]azulen-8-yl]-acetamide] showed an IC50 of 427 nM.

For `CCNc1ccc(-c2nn(-c3ccccc3Br)c3c2CCCc2nc(NC(C)=O)sc2-3)cn1` [Example B-74], the half-maximal inhibitory concentration (IC50) stood at 168 nM.

`CC(C)n1ncc2c1-c1scnc1CCC2` [Example C-08, 1-Isopropyl-1,4,5,6-tetrahydro-9-thia-1,2,7-triaza-cyclopent[e]azulene] registered a half-maximal inhibitory concentration (IC50) of 2440 nM. Against the preceding compound, the IC50 is about 15-fold higher.

The compound `CCNc1ccc(-c2nn(C(C)(C)C)c3c2CCCc2nc(NC(C)=O)sc2-3)cn1` [Example B-123] displayed an IC50 of 1140 nM.

`CNC(=O)Nc1nc2c(s1)-c1c(c(-c3ccc(C)nc3)nn1-c1ccccc1C)CCC2` [Example D-05] displayed an IC50 of 358 nM.

Take `CCc1ccccc1-n1nc(-c2ccc(NC)nc2)c2c1-c1sc(NC(C)=O)nc1CCC2` [Example B-88, N-[1-(2-Ethyl-phenyl)-3-(6-methylamino-pyridin-3-yl)-1,4,5,6-tetrahydro-9-thia-1,2,7-triaza-cyclopenta[e]azulen-8-yl]-acetamide]: inhibition was half-maximal at 269 nM (IC50).

`CC(=O)Nc1nc2c(s1)-c1c(c(-c3c[nH]cn3)nn1CCN(C)C)CCC2` [Example B-110] had a half-maximal inhibitory concentration (IC50) of 840 nM.

Regarding `Cc1ccc(-c2nn(-c3ccccc3C)c3c2CCCc2nc(NC(=O)NCCN(C)C)sc2-3)cn1` [Example D-07], the IC50 was determined as 1280 nM.

`CC(=O)Nc1nc2c(s1)-c1c(c(-c3ccc(N)nc3)nn1CCN1CCOCC1)CCC2` [Example B-105] showed a concentration for half-maximal inhibition (IC50) of 1380 nM.

`COCCNC(=O)c1nn(C(C)C)c2c1CCCc1nc(NC(C)=O)sc1-2` [Example E-07] had an IC50 of 11400 nM.
